The text below walks through data of the supplement of paper PMC7661543.

Holding throughout (test): relative cell number vs DMSO control (72 h) (% of DMSO); higher = less growth inhibition (more cells)
Common to all, as to settings: sgRNA knockout: sgNT

One experiment relates to HCC-38. How it is done: (§1)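 QMAP-Seq: a pool of 5 breast cancer cell lines (ZR-75-1, SKBR3, HCC-38, MDA-MB-231, BT-20), each carrying 12 doxycycline-inducible Cas9 sgRNA perturbations (11 knockouts plus non-targeting sgNT), was treated with compounds for 72 h at four 10-fold doses (10 nM-10 uM or 1 nM-1 uM range). Barcodes were amplified and sequenced, and cell number was interpolated from 293T spike-in standard curves. The result is expressed as % of the median of DMSO wells. Two biological replicates.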

Another experiment relates to MDA-MB-231. How it is done:
as §1

Another experiment relates to ZR-75-1. As to the method:
as §1

A further experiment concerns BT-20. How it is done: as §1
In a further experiment the test system is SKBR3. How it is done:
as §1

± gives the standard deviation of the averaged measurements.

Regarding `CC(C)n1cnc2c(NCCc3ccc(O)cc3)nc(-c3csc4ccccc34)nc21` [StemRegenin1], the relative cell number turned out to be 90 ± 7.6 in the experiment with HCC-38 (10 nM); 116 ± 2.2 with HCC-38 (100 nM); 104 ± 2.8 with HCC-38 (1000 nM); 86 ± 4 with HCC-38 (10000 nM); 101 ± 24 with MDA-MB-231 (10 nM); 97.5 ± 25 with MDA-MB-231 (100 nM). Further, the relative cell number in the experiment on MDA-MB-231 (1000 nM) stood at 132 ± 74; with MDA-MB-231 (10000 nM), 75.9 ± 11; in the experiment with ZR-75-1 (10 nM), 65.1 ± 15; with ZR-75-1 (100 nM), 135 ± 5.4; in the experiment with ZR-75-1 (1000 nM) it was 153 ± 85; with ZR-75-1 (10000 nM), 30.4 ± 12. Moreover, the relative cell number in the experiment on BT-20 (10 nM) amounted to 98.5 ± 13; with BT-20 (100 nM) it was 115 ± 20; in the experiment with BT-20 (1000 nM), 94.3 ± 36; in the experiment on BT-20 (10000 nM), 55 ± 7.7; with SKBR3 (10 nM), 103 ± 9; in the experiment on SKBR3 (100 nM), 108 ± 14. Moreover, the results for the relative cell number in the experiment with SKBR3 (1000 nM) and in the experiment on SKBR3 (10000 nM) were 85.7 ± 28 and 29.6 ± 8.4, respectively.
For `COc1cc2nccc(Oc3ccc(NC(=O)NC4CC4)c(Cl)c3)c2cc1C(N)=O` [Lenvatinib], the relative cell number came to 95.3 ± 5.8 with HCC-38 (10 nM); 96.8 ± 4.3 in the experiment on HCC-38 (100 nM); 101 ± 33 with HCC-38 (1000 nM); 68.4 ± 10 in the experiment with HCC-38 (10000 nM); 94.7 ± 34 with MDA-MB-231 (10 nM); 122 ± 7.1 with MDA-MB-231 (100 nM). In addition, the relative cell number was 114 ± 15 with MDA-MB-231 (1000 nM); 86.5 ± 25 with MDA-MB-231 (10000 nM); 84.1 ± 11 in the experiment with ZR-75-1 (10 nM); 92.2 ± 22 in the experiment on ZR-75-1 (100 nM); 108 ± 20 in the experiment with ZR-75-1 (1000 nM); 90.8 ± 15 in the experiment on ZR-75-1 (10000 nM). Further, the relative cell number in the experiment on BT-20 (10 nM) worked out at 94.9 ± 21; in the experiment with BT-20 (100 nM) it was 97.5 ± 14; with BT-20 (1000 nM), 128 ± 7.1; in the experiment on BT-20 (10000 nM), 93.5 ± 36; with SKBR3 (10 nM), 111 ± 9.8; in the experiment with SKBR3 (100 nM), 92.6 ± 8.6. Also, the relative cell number in the experiment with SKBR3 (1000 nM) is 85.9 ± 42; in the experiment with SKBR3 (10000 nM), 94.1 ± 35.
Regarding `Fc1ccc(CNc2ncnc3ccc(F)cc23)cc1` [Spautin1], the relative cell number in the experiment on HCC-38 (10 nM) stood at 104 ± 8; in the experiment on HCC-38 (100 nM), 99.2 ± 11; in the experiment on HCC-38 (1000 nM), 111 ± 3.9; in the experiment on HCC-38 (10000 nM), 106 ± 1.6; in the experiment on MDA-MB-231 (10 nM) it was 124 ± 29; with MDA-MB-231 (100 nM), 97 ± 34. The relative cell number came out at 77.7 ± 26 with MDA-MB-231 (1000 nM); 74.8 ± 8 in the experiment on MDA-MB-231 (10000 nM); 55.6 ± 14 in the experiment with ZR-75-1 (10 nM); 70.6 ± 3.6 in the experiment on ZR-75-1 (100 nM); 94.4 ± 13 in the experiment with ZR-75-1 (1000 nM); 49.3 ± 9.3 in the experiment with ZR-75-1 (10000 nM). Further, the relative cell number with BT-20 (10 nM) amounted to 96.8 ± 34; in the experiment with BT-20 (100 nM) it was 86 ± 36; with BT-20 (1000 nM), 89.8 ± 13; with BT-20 (10000 nM), 88.6 ± 19; in the experiment on SKBR3 (10 nM) it was 87.9 ± 40; in the experiment on SKBR3 (100 nM) it was 85.3 ± 0.86. Besides, the results for the relative cell number in the experiment with SKBR3 (1000 nM) and in the experiment on SKBR3 (10000 nM) were 87.4 ± 8.4 and 92 ± 23, respectively.
For `Cc1ccccc1-n1c(Cn2cnc3c(N)ncnc32)nc2cccc(C)c2c1=O`, the relative cell number in the experiment with HCC-38 (10 nM) stood at 97.9 ± 27; in the experiment on HCC-38 (100 nM), 104 ± 18; with HCC-38 (1000 nM), 102 ± 12; with HCC-38 (10000 nM), 95.6 ± 8.2; in the experiment with MDA-MB-231 (10 nM), 123 ± 7.7; in the experiment on MDA-MB-231 (100 nM), 128 ± 20. Also, the relative cell number is 101 ± 9 in the experiment on MDA-MB-231 (1000 nM); 153 ± 48 in the experiment with MDA-MB-231 (10000 nM); 112 ± 23 with ZR-75-1 (10 nM); 98.5 ± 40 with ZR-75-1 (100 nM); 71.4 ± 14 in the experiment with ZR-75-1 (1000 nM); 105 ± 6 in the experiment with ZR-75-1 (10000 nM). Besides, the relative cell number was 110 ± 2.1 with BT-20 (10 nM); 133 ± 22 with BT-20 (100 nM); 102 ± 15 with BT-20 (1000 nM); 113 ± 5.9 with BT-20 (10000 nM); 104 ± 11 with SKBR3 (10 nM); 107 ± 12 in the experiment with SKBR3 (100 nM). Besides, the relative cell number in the experiment with SKBR3 (1000 nM) came out at 101.8 ± 0.55; in the experiment with SKBR3 (10000 nM), 93.3 ± 7.2.
On to `CC(C)C[C@H](NC(=O)[C@H](Cc1ccccc1)NC(=O)c1cnccn1)B(O)O` [Bortezomib], for which the relative cell number was 91.8 ± 5.8 in the experiment on HCC-38 (1 nM); 36.8 ± 2.4 with HCC-38 (10 nM); 4.58 ± 0.053 in the experiment on HCC-38 (100 nM); 7.2 ± 1.2 with HCC-38 (1000 nM); 86.7 ± 9.3 in the experiment with MDA-MB-231 (1 nM); 65.2 ± 19 in the experiment on MDA-MB-231 (10 nM). The relative cell number in the experiment on MDA-MB-231 (100 nM) is 6.68 ± 5; in the experiment with MDA-MB-231 (1000 nM), 13.2 ± 6.6; in the experiment with ZR-75-1 (1 nM) it was 72 ± 20; with ZR-75-1 (10 nM), 80 ± 17; in the experiment with ZR-75-1 (100 nM), 17.2 ± 3.5; in the experiment with ZR-75-1 (1000 nM), 13.4 ± 2.8. Besides, the relative cell number was 71.71 ± 0.27 with BT-20 (1 nM); 74.6 ± 13 in the experiment with BT-20 (10 nM); 24.7 ± 9.2 in the experiment on BT-20 (100 nM); 16.7 ± 2.3 in the experiment with BT-20 (1000 nM); 94.4 ± 13 in the experiment on SKBR3 (1 nM); 34.3 ± 8 with SKBR3 (10 nM). For the same molecule, the relative cell number with SKBR3 (100 nM) was 14.2 ± 4.1; with SKBR3 (1000 nM) it was 9.59 ± 4.
In the case of `N.N.[Cl][Pt][Cl]` [Cisplatin], the relative cell number came out at 114 ± 20 in the experiment with HCC-38 (10 nM); 79.6 ± 12 in the experiment on HCC-38 (100 nM); 115 ± 13 in the experiment with HCC-38 (1000 nM); 93.4 ± 8.6 with HCC-38 (10000 nM); 95 ± 3.3 in the experiment on MDA-MB-231 (10 nM); 87.8 ± 8.9 in the experiment on MDA-MB-231 (100 nM). The relative cell number with MDA-MB-231 (1000 nM) was found to be 99.8 ± 51; with MDA-MB-231 (10000 nM), 116 ± 20; in the experiment with ZR-75-1 (10 nM), 89.8 ± 18; with ZR-75-1 (100 nM) it was 88.2 ± 45; in the experiment on ZR-75-1 (1000 nM), 89.7 ± 35; in the experiment with ZR-75-1 (10000 nM), 74.5 ± 27. Further, the relative cell number turned out to be 100 ± 7.4 with BT-20 (10 nM); 80.4 ± 4.7 with BT-20 (100 nM); 111 ± 5.1 in the experiment with BT-20 (1000 nM); 89 ± 2.7 with BT-20 (10000 nM); 97.5 ± 2.7 with SKBR3 (10 nM); 84.6 ± 5.9 in the experiment on SKBR3 (100 nM). Moreover, the relative cell number in the experiment on SKBR3 (1000 nM) is 81.5 ± 8.8; in the experiment with SKBR3 (10000 nM), 110 ± 3.5.
